Where “and” joins values, the source holds several entries; their conditions need not be identical. Equal values may be shown once. Read-outs that look alike come from different tables or passages of the source.
Key:
SARS2 = format: cell-based, SARS-CoV-2; conditions: for Percentage Infection Relative to Appropriate DMSO Control with Avg Background Subtraction: Nunc Celigo plates; for Percentage Inhibition Average 1 μM / Screening data (Relative infection to DMSO controls) Average 1 μM: SARS2, 1 μM; for Screening data (Relative infection to DMSO controls) Average 1 μM / Screening data (Relative infection to DMSO controls) Average 5 μM / Screening data (Relative infection to DMSO controls) Average 10 μM / Screening data (Relative infection to DMSO controls) Average 25 μM / Screening data (Relative infection to DMSO controls) Average 50 μM / Average (relative infection to DMSO over the 5 tested concentrations): 100=DMSO control; for Percentage Inhibition Average 5 μM / Screening data (Relative infection to DMSO controls) Average 5 μM: SARS2, 5 μM; for Percentage Inhibition Average 10 μM / Screening data (Relative infection to DMSO controls) Average 10 μM: SARS2, 10 μM; for Percentage Inhibition Average 25 μM / Screening data (Relative infection to DMSO controls) Average 25 μM: SARS2, 25 μM; for Percentage Inhibition Average 50 μM / Screening data (Relative infection to DMSO controls) Average 50 μM: SARS2, 50 μM; for Average (relative infection to DMSO over the 5 tested concentrations): SARS2, average over 1 to 50 uM; for Infection Data, Average, Mean: average of Exp 1-2 (SMW491, SMW492)
cells (nuclei count) = conditions: for Relative cell count to DMSO controls, Average 1 μM / Relative cell count to DMSO controls, Average 5 μM / Relative cell count to DMSO controls, Average 10 μM / Relative cell count to DMSO controls, Average 25 μM / Relative cell count to DMSO controls, Average 50 μM: toxicity data, 100=DMSO control; for Toxicity Data, Average, Mean percentage relative to DMSO control: Average of Exp 1 (SMW491) and Exp 2 (SMW492); for Relative cell count to DMSO controls, Average (for correlation analysis): average value over the 5 tested concentrations (1 to 50 uM)

Compound | Percentage Inhibition Average 1 μM (SARS2) | Screening data (Relative infection to DMSO controls) Average 1 μM (SARS2) | Percentage Inhibition Average 5 μM (SARS2) | Screening data (Relative infection to DMSO controls) Average 5 μM (SARS2) | Percentage Inhibition Average 10 μM (SARS2) | Screening data (Relative infection to DMSO controls) Average 10 μM (SARS2) | Percentage Inhibition Average 25 μM (SARS2) | Screening data (Relative infection to DMSO controls) Average 25 μM (SARS2) | Percentage Inhibition Average 50 μM (SARS2) | Screening data (Relative infection to DMSO controls) Average 50 μM (SARS2) | Average (relative infection to DMSO over the 5 tested concentrations) (SARS2) | Infection Data, Average, Mean (SARS2; n 4, 1 uM) | Infection Data, Average, Mean (SARS2; n 4, 5 uM) | Infection Data, Average, Mean (SARS2; n 4, 10 uM) | Infection Data, Average, Mean (SARS2; n 4, 25 uM) | Infection Data, Average, Mean (SARS2; n 4, 50 uM) | Relative cell count to DMSO controls, Average 1 μM (cells (nuclei count)) | Relative cell count to DMSO controls, Average 5 μM (cells (nuclei count)) | Relative cell count to DMSO controls, Average 10 μM (cells (nuclei count)) | Relative cell count to DMSO controls, Average 25 μM (cells (nuclei count)) | other results
CCN(CC)CCN(Cc1ccccn1)C(=O)c1cccs1 [SILCS37] | 16.29% | 83.71 | 15.36% | 84.64 | 23.94% | 76.06 | −2.13% | 102.13 | 0.25% | 99.75 | 89.26 | 83.71% | 84.64% | 76.06% | 102.13% | 99.75% | 108.95 | 110.16 | 116.31 | 104.07 | Percentage Infection Relative to Appropriate DMSO Control with Avg Background Subtraction (SARS2; Exp 1 (SMW491), 1 uM): 88.98% and 80.18%; Percentage Infection Relative to Appropriate DMSO Control with Avg Background Subtraction (SARS2; Exp 1 (SMW491), 5 uM): 95.46% and 97.68%; Percentage Infection Relative to Appropriate DMSO Control with Avg Background Subtraction (SARS2; Exp 1 (SMW491), 10 uM): 109.85% and 92.25%; Percentage Infection Relative to Appropriate DMSO Control with Avg Background Subtraction (SARS2; Exp 1 (SMW491), 25 uM): 117.51% and 105.36%; Percentage Infection Relative to Appropriate DMSO Control with Avg Background Subtraction (SARS2; Exp 1 (SMW491), 50 uM): 136.02% and 127.57%; Percentage Infection Relative to Appropriate DMSO Control with Avg Background Subtraction (SARS2; Exp 2 (SMW492), 1 uM): 80.82% and 84.84%; Percentage Infection Relative to Appropriate DMSO Control with Avg Background Subtraction (SARS2; Exp 2 (SMW492), 5 uM): 71.36% and 74.06%; Percentage Infection Relative to Appropriate DMSO Control with Avg Background Subtraction (SARS2; Exp 2 (SMW492), 25 uM): 121.75% and 63.91%; Percentage Infection Relative to Appropriate DMSO Control with Avg Background Subtraction (SARS2; Exp 2 (SMW492), 50 uM): 88.75% and 46.65%; Relative cell count to DMSO controls, Average 50 μM (cells (nuclei count)): 75.29; Toxicity Data, Average, Mean percentage relative to DMSO control (cells (nuclei count); n=4, 1 uM): 108.95%; Toxicity Data, Average, Mean percentage relative to DMSO control (cells (nuclei count); n=4, 5 uM): 110.16%; Toxicity Data, Average, Mean percentage relative to DMSO control (cells (nuclei count); n=4, 10 uM): 116.31%; Toxicity Data, Average, Mean percentage relative to DMSO control (cells (nuclei count); n=4, 25 uM): 104.07%; Toxicity Data, Average, Mean percentage relative to DMSO control (cells (nuclei count); n=4, 50 uM): 75.29%; Relative cell count to DMSO controls, Average (for correlation analysis) (cells (nuclei count)): 102.96
CCN(CC)CCN(Cc1ccncc1)C(=O)c1cccs1 [SILCS38] | 23.75% | 76.25 | 15.22% | 84.78 | 26.94% | 73.06 | 1.37% | 98.63 | 13.51% | 86.49 | 83.84 | 76.25% | 84.78% | 73.06% | 98.63% | 86.49% | 111.85 | 110 | 115.05 | 107.71 | Percentage Infection Relative to Appropriate DMSO Control with Avg Background Subtraction (SARS2; Exp 1 (SMW491), 1 uM): 101.61% and 80.30%; Percentage Infection Relative to Appropriate DMSO Control with Avg Background Subtraction (SARS2; Exp 1 (SMW491), 5 uM): 101.51% and 104.07%; Percentage Infection Relative to Appropriate DMSO Control with Avg Background Subtraction (SARS2; Exp 1 (SMW491), 10 uM): 91.03% and 87.80%; Percentage Infection Relative to Appropriate DMSO Control with Avg Background Subtraction (SARS2; Exp 1 (SMW491), 25 uM): 110.71% and 103.81%; Percentage Infection Relative to Appropriate DMSO Control with Avg Background Subtraction (SARS2; Exp 1 (SMW491), 50 uM): 96.25% and 89.03%; Percentage Infection Relative to Appropriate DMSO Control with Avg Background Subtraction (SARS2; Exp 2 (SMW492), 1 uM): 74.34% and 48.74%; Percentage Infection Relative to Appropriate DMSO Control with Avg Background Subtraction (SARS2; Exp 2 (SMW492), 5 uM): 72.80% and 60.72%; Percentage Infection Relative to Appropriate DMSO Control with Avg Background Subtraction (SARS2; Exp 2 (SMW492), 10 uM): 63.76% and 49.65%; Percentage Infection Relative to Appropriate DMSO Control with Avg Background Subtraction (SARS2; Exp 2 (SMW492), 50 uM): 90.22% and 70.45%; Relative cell count to DMSO controls, Average 50 μM (cells (nuclei count)): 105.21; Toxicity Data, Average, Mean percentage relative to DMSO control (cells (nuclei count); n=4, 1 uM): 111.85%; Toxicity Data, Average, Mean percentage relative to DMSO control (cells (nuclei count); n=4, 5 uM): 110.00%; Toxicity Data, Average, Mean percentage relative to DMSO control (cells (nuclei count); n=4, 10 uM): 115.05%; Toxicity Data, Average, Mean percentage relative to DMSO control (cells (nuclei count); n=4, 25 uM): 107.71%; Toxicity Data, Average, Mean percentage relative to DMSO control (cells (nuclei count); n=4, 50 uM): 105.21%; Relative cell count to DMSO controls, Average (for correlation analysis) (cells (nuclei count)): 109.96
CCN(CC)CCN(Cc1cc(C)c(Br)s1)Cc1cc(C)c(Br)s1 [SILCS39] | 21.81% | 78.19 | 48.17% | 51.83 | 79.68% | 20.32 | 95.89% | 4.11 | 93.60% | 6.40 | 32.17 | 78.19% | 51.83% | 20.32% | 4.11% | 6.40% | 107.69 | 114.94 | 149.83 | 128.15 | Percentage Infection Relative to Appropriate DMSO Control with Avg Background Subtraction (SARS2; Exp 1 (SMW491), 1 uM, listed as SICLS39): 94.45% and 94.76%; Percentage Infection Relative to Appropriate DMSO Control with Avg Background Subtraction (SARS2; Exp 1 (SMW491), 5 uM, listed as SICLS39): 61.21% and 63.14%; Percentage Infection Relative to Appropriate DMSO Control with Avg Background Subtraction (SARS2; Exp 1 (SMW491), 10 uM, listed as SICLS39): 26.66% and 13.52%; Percentage Infection Relative to Appropriate DMSO Control with Avg Background Subtraction (SARS2; Exp 1 (SMW491), 25 uM, listed as SICLS39): 1.98% and 2.03%; Percentage Infection Relative to Appropriate DMSO Control with Avg Background Subtraction (SARS2; Exp 2 (SMW492), 1 uM, listed as SICLS39): 55.17% and 68.37%; Percentage Infection Relative to Appropriate DMSO Control with Avg Background Subtraction (SARS2; Exp 2 (SMW492), 5 uM, listed as SICLS39): 40.93% and 42.02%; Percentage Infection Relative to Appropriate DMSO Control with Avg Background Subtraction (SARS2; Exp 2 (SMW492), 10 uM, listed as SICLS39): 21.95% and 19.13%; Percentage Infection Relative to Appropriate DMSO Control with Avg Background Subtraction (SARS2; Exp 2 (SMW492), 25 uM, listed as SICLS39): 5.42% and 6.99%; Percentage Infection Relative to Appropriate DMSO Control with Avg Background Subtraction (SARS2; Exp 2 (SMW492), 50 uM, listed as SICLS39): 5.19% and 10.37%; Relative cell count to DMSO controls, Average 50 μM (cells (nuclei count)): 46.35; Toxicity Data, Average, Mean percentage relative to DMSO control (cells (nuclei count); n=4, 1 uM): 107.69%; Toxicity Data, Average, Mean percentage relative to DMSO control (cells (nuclei count); n=4, 5 uM): 114.94%; Toxicity Data, Average, Mean percentage relative to DMSO control (cells (nuclei count); n=4, 10 uM): 149.83%; Toxicity Data, Average, Mean percentage relative to DMSO control (cells (nuclei count); n=4, 25 uM): 128.15%; Toxicity Data, Average, Mean percentage relative to DMSO control (cells (nuclei count); n=4, 50 uM): 46.35%; Relative cell count to DMSO controls, Average (for correlation analysis) (cells (nuclei count)): 109.39
